Test results as given in the supplement of paper PMC10307832.

What was measured:
Experiment in all cases: relative viability (nuclei count vs DMSO), 5 days (fraction); higher = more cells survive
AZ505 + OSI-027 = compound: C1CCC(CC1)N(CCNCCC2=C3C(=C(C=C2)O)NC(=O)CO3)C(=O)CCNCCC4=CC(=C(C=C4)Cl)Cl [AZ505] + COc1cccc2cc(-c3nc([C@H]4CC[C@H](C(=O)O)CC4)n4ncnc(N)c34)[nH]c12 [OSI-027] (partner 0.5 µM)
Method in brief: (§1)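 Lung cancer cell lines, seeded in 1536-well plates, were treated the following day by pin tool with a single drug or with five library-drug doses (not always all listed) in √10 steps on top of a fixed anchor-drug dose. Cells were fixed and nuclei stained in one step after 5 days, and nuclei were counted. Relative viability is the nuclei count for treated wells divided by that for vehicle wells, reported as medians of duplicate plates.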

Dactolisib + Lapatinib = compound: Cn1c(=O)n(-c2ccc(C(C)(C)C#N)cc2)c2c3cc(-c4cnc5ccccc5c4)ccc3ncc21 [Dactolisib] + CS(=O)(=O)CCNCc1ccc(-c2ccc3ncnc(Nc4ccc(OCc5cccc(F)c5)c(Cl)c4)c3c2)o1 [Lapatinib] (partner 2 µM)
Method in brief: as §1

Dactolisib + Dasatinib = compound: Cn1c(=O)n(-c2ccc(C(C)(C)C#N)cc2)c2c3cc(-c4cnc5ccccc5c4)ccc3ncc21 [Dactolisib] + Cc1nc(Nc2ncc(C(=O)Nc3c(C)cccc3Cl)s2)cc(N2CCN(CCO)CC2)n1 [Dasatinib] (partner 0.075 µM)
Method in brief: as §1

AZ505 + Pictilisib = compound: C1CCC(CC1)N(CCNCCC2=C3C(=C(C=C2)O)NC(=O)CO3)C(=O)CCNCCC4=CC(=C(C=C4)Cl)Cl [AZ505] + CS(=O)(=O)N1CCN(Cc2cc3nc(-c4cccc5[nH]ncc45)nc(N4CCOCC4)c3s2)CC1 [Pictilisib] (partner 1 µM)
Method in brief: as §1

Cell Line	relative viability (AZ505 + OSI-027; first compound 0.253 µM)	relative viability (AZ505 + OSI-027; first compound 0.8 µM)	relative viability (AZ505 + OSI-027; first compound 2.53 µM)	relative viability (AZ505 + OSI-027; first compound 8 µM)	relative viability (Dactolisib + Lapatinib; first compound 0.002 µM)	relative viability (Dactolisib + Lapatinib; first compound 0.006325 µM)	relative viability (Dactolisib + Lapatinib; first compound 0.02 µM)	relative viability (Dactolisib + Lapatinib; first compound 0.06325 µM)	relative viability (Dactolisib + Lapatinib; first compound 0.2 µM)	relative viability (Dactolisib + Dasatinib; first compound 0.002 µM)	relative viability (Dactolisib + Dasatinib; first compound 0.006325 µM)	relative viability (Dactolisib + Dasatinib; first compound 0.02 µM)	relative viability (Dactolisib + Dasatinib; first compound 0.06325 µM)	relative viability (Dactolisib + Dasatinib; first compound 0.2 µM)	relative viability (AZ505 + Pictilisib; first compound 0.08 µM)	relative viability (AZ505 + Pictilisib; first compound 0.253 µM)	relative viability (AZ505 + Pictilisib; first compound 0.8 µM)	relative viability (AZ505 + Pictilisib; first compound 2.53 µM)	relative viability (AZ505 + Pictilisib; first compound 8 µM)	relative viability (AZ505 + OSI-027; first compound 0.08 µM)
LU99A	0.346	0.271	0.32	0.329	0.94	0.828	0.516	0.336	0.257	0.621	0.449	0.403	0.225	0.205	0.318	0.327	0.302	0.354	0.315	–
ABC-1	0.325	0.521	0.493	0.558	1.18	1.04	0.982	0.808	0.707	0.57	0.486	0.416	0.392	0.282	0.711	0.618	0.759	0.662	0.57	0.469
NCI-H2170	0.677	0.684	0.738	0.793	0.263	0.289	0.262	0.235	0.222	0.644	0.538	0.652	0.486	0.289	0.319	0.289	0.254	0.336	0.33	0.743
NCI-H2347	–	–	–	0.343	1.16	0.943	0.843	0.906	0.813	0.284	0.306	0.313	0.291	0.253	0.551	0.581	0.537	0.455	0.541	0.25
NCI-H1993	0.572	0.51	0.529	0.556	0.784	0.714	0.843	0.601	0.651	0.553	0.413	0.498	0.505	0.52	0.679	0.798	0.807	0.768	0.776	0.568
NCI-H322M	0.332	0.601	0.572	0.553	0.612	0.583	0.616	0.527	0.508	0.267	0.256	0.243	0.234	0.235	0.517	0.422	0.562	0.508	0.504	0.535
NCI-H838	0.438	0.402	0.34	0.398	0.983	0.717	0.463	0.249	0.224	0.261	0.259	0.247	0.248	0.224	0.342	0.404	0.493	0.344	0.411	0.402
HARA	0.234	0.352	0.345	0.365	0.652	0.67	0.761	0.421	0.318	0.273	0.25	0.213	0.292	0.127	0.267	0.399	0.287	0.228	0.264	0.269
NCI-H2087	0.368	0.595	0.518	0.728	1.21	1.16	1.23	0.855	0.563	0.782	0.771	0.86	0.359	0.272	0.679	0.703	0.797	0.738	0.828	0.403
NCI-H1437	0.963	0.911	0.823	0.872	0.797	0.835	0.807	0.517	0.234	0.378	0.426	0.378	0.358	0.227	0.46	0.424	0.599	0.415	0.404	0.864
NCI-H1792	–	0.687	0.718	0.739	1.05	0.943	0.859	0.792	0.293	0.752	0.724	0.724	0.338	0.206	0.301	0.262	0.288	0.25	0.323	0.712
NCI-H650	0.552	0.529	0.671	0.54	0.91	1	0.691	0.55	0.452	0.539	0.432	0.449	0.314	0.305	0.69	1.01	0.876	0.86	0.885	0.503
COR-L23	0.65	0.588	0.486	0.656	1.39	0.864	0.765	0.299	0.295	0.634	0.471	0.543	0.169	0.144	0.546	0.741	0.486	0.686	0.535	0.494
COR-L 105	0.572	0.615	0.62	0.752	0.311	0.355	0.363	0.267	0.35	0.294	0.293	0.309	0.2	0.202	0.368	0.391	0.375	0.355	0.497	0.626
LK-2	0.206	0.232	0.229	0.2	0.804	0.831	0.807	0.474	0.235	0.279	0.322	0.31	0.182	0.144	0.562	0.706	0.59	0.597	0.604	0.238
201T	0.721	0.813	0.91	0.764	1.07	1.05	0.991	0.956	0.969	0.601	0.538	0.524	0.554	0.346	0.651	0.678	0.613	0.633	0.674	0.688
